# Measured values reported in patent publication US20050124032A1 (priority 2002, published 2005).
# Test system: X. dendrorhous Y-2476
# Type: cell-based, Xanthophyllomyces dendrorhous
smiles,measurement,value
CC1=C(C)C(=O)C(C)=C(C)C1=O [duroquinone],Reduction of growth,15-25%
